Experimental data as given in PMC4890880 (ACS infectious diseases, 2016).
Where two headings read alike, the source gives them in different places.

Key:
[1] = test system: Plasmodium berghei (Pb-Luc) exoerythrocytic-stage parasites; experiment: microbe, parasite or virus in culture
HepG2-A16-CD81EGFP cells = experiment: cells; conditions: Homo sapiens; for IC50: HepG2, read-out: Tox IC50; for inhibition at 50 µM: HepG2, read-out: Tox max inhibition (%) @ 50 uM
[2] = read-out: Inhibition% @ 50 uM rep1
[3] = read-out: Inhibition% @ 50 uM rep2
[4] = HepG2, read-out: HepG2 Tox% @ 50 uM rep1
[5] = HepG2, read-out: HepG2 Tox% @ 50 uM rep2
[6] = read-out: PbLuc IC50, dose response, 1/3 dilutions, max conc. 10 or 50 uM, unit inferred
[7] = read-out: PbLuc max inhibition (%) @ 50 uM

Compound | inhibition at 50 µM [1, 2] [%] | inhibition at 50 µM [1, 3] [%] | cytotoxicity at 50 µM (HepG2-A16-CD81EGFP cells; [4]) [%] | cytotoxicity at 50 µM (HepG2-A16-CD81EGFP cells; [5]) [%] | IC50 [1, 6] [µM] | inhibition at 50 µM [1, 7] [%] | IC50 (HepG2-A16-CD81EGFP cells) [µM] | inhibition at 50 µM (HepG2-A16-CD81EGFP cells) [%] | IC50 ([1]; read-out: PbLuc IC50, dose response, unit inferred) [µM]
C[n+]1c2ccccc2nc2ccc(NCCO)cc21 [MMV396693] | 102 | 104 | 81 | 93 |  |  |  |  | 
COc1ccc(C(=O)NC(c2ccc(Cl)cc2Cl)c2cc(Cl)c3cccnc3c2O)cc1 (stereo not drawn) [MMV666054] | 100 | 102 | 98 |  | 1.58 | 101 | 12.7 | 88 | 
c1ccc2cc3c(Nc4ccc(N5CCOCC5)cc4)ccnc3cc2c1 [MMV006861] | 103 | 105 | 78 | 99 |  |  |  |  | 
Oc1ccc(Br)cc1CN1CCN(Cc2cccc(F)c2)CC1 [MMV000356] | 100 | 92 | 64 |  |  |  |  |  | 
CC(C)(C)C(=O)Nc1ccc(C(=O)Nc2cccc(-c3nc4ccccc4[nH]3)c2)cc1 [MMV665879] | 102 | 103 | 99 | 100 |  |  |  |  | 
O=C(Nc1nc(-c2ccccn2)cs1)c1ccccc1Br [MMV665909] | 98 | 98 | 79 | 86 |  |  |  |  | 
COc1ccc(C2c3ccc4ccccc4c3Oc3ncn(CCCN(C)C)c(=N)c32)cc1 (stereo not drawn) [MMV667491] | 103 | 103 | 99 |  | 4 | 94 | 10.7 | 93 | 
CN1CCN(c2ncnc3c2[nH]c2ccc(Cl)cc23)CC1 [MMV396704] | 99 | 101 | 32 |  |  |  |  |  | 
Cc1ccc(Cl)cc1N1CCN(CCCNC(=O)C2CCN(c3nc4ccccc4[nH]3)CC2)CC1 [MMV019746] | 103 | 105 | 100 | 101 |  |  |  |  | 
Cc1ccc(-c2cc(C(=O)Nc3ccc(S(=O)(=O)N4CCCCC4)cc3)[nH]n2)c(O)c1 [MMV665906] | -12 | 30 | -10 | -5 |  |  |  |  | 
Cc1cc(NC(=O)C2c3ccccc3C(=O)N(CC(C)C)C2c2cccs2)no1 (stereo not drawn) [MMV006429] | 103 | 104 | 15 | 18 |  | 96 | > 50 | 18 | 21.4
Cc1ccc(-c2nc3ccccc3o2)cc1NCc1cc(Cc2ccccc2)ccc1O [MMV020912] | 75 | 76 | 13 |  |  |  |  |  | 
COc1ccc(C(=O)C(CCC(CNC(C)(C)C)C(=O)c2ccc(OC)cc2)CNC(C)(C)C)cc1 (stereo not drawn) [MMV007591] | 103 | 104 | 101 |  | 7.2 | 99 | 25.3 | 92 | 
COc1cc(OC)c(N(C)C(=O)c2cc3c(s2)-c2ccccc2S(=O)(=O)C3)cc1Cl [MMV006427] | 99 | 102 | 53 | 52 | 11 | 97 | > 50 | 39 | 
Cc1ccc2c(C)nc(Nc3nc(C)cc(-c4ccccc4)n3)nc2c1 [MMV007041] | 103 | 103 | 37 |  |  |  |  |  | 
COc1ccc(-c2c(C)nn3c(N)c(C#N)cnc23)cc1OC [MMV396797] | 104 | 106 | 72 | 77 | 1.63 | 101 | 25.8 | 55 | 
